# Experimental data as given in patent publication US20240270762A1, “PENICILLIN-BINDING PROTEIN INHIBITORS” (priority 2021, published 2024).
# How the values were obtained:
# [1] = tested on: N. gonorrhoeae WHO G; test: Liquid broth MIC in Fastidious broth; settings: Neisseria gonorrhoeae, read-out: Minimum Inhibitory Concentration, WHO G
# [2] = tested on: N. gonorrhoeae FA1090; test: Liquid broth MIC in Fastidious broth; settings: Neisseria gonorrhoeae, FA1090, read-out: Minimum Inhibitory Concentration, FA 1090
# [3] = tested on: N. gonorrhoeae WHO M; test: Liquid broth MIC in Fastidious broth; settings: Neisseria gonorrhoeae, read-out: Minimum Inhibitory Concentration, WHO M
# [4] = tested on: N. gonorrhoeae ATCC 49226; test: Liquid broth MIC in Fastidious broth; settings: Neisseria gonorrhoeae, ATCC49226, read-out: Minimum Inhibitory Concentration, ATCC 49226
# [5] = tested on: N. gonorrhoeae WHO X; test: Liquid broth MIC in Fastidious broth; settings: Neisseria gonorrhoeae, read-out: Minimum Inhibitory Concentration, WHO X
# [6] = tested on: B. humptydooensis ATCC BAA-2767; test: microbe, parasite or virus in culture; assay type: cell-based; settings: Burkholderia humptydooensis, ATCCBAA2767, read-out: Minimum inhibitory concentration (MIC), B. humptydooensis ATCC BAA-2767
# [7] = tested on: P. aeruginosa CDC-0090; test: microbe, parasite or virus in culture; assay type: cell-based; settings: Pseudomonas aeruginosa, CDC0090, read-out: Minimum inhibitory concentration, P. aeruginosa CDC-0090
# [8] = tested on: P. aeruginosa CDC-0054; test: microbe, parasite or virus in culture; assay type: cell-based; settings: Pseudomonas aeruginosa, CDC0054, read-out: Minimum inhibitory concentration, P. aeruginosa CDC-0054
# [9] = tested on: A. baumannii CDC-0036; test: microbe, parasite or virus in culture; assay type: cell-based; settings: Acinetobacter baumannii, CDC0036, read-out: MIC, A. baumannii CDC-0036
# [10] = tested on: P. aeruginosa ATCC 27853; test: microbe, parasite or virus in culture; assay type: cell-based; settings: Pseudomonas aeruginosa, ATCC27853, read-out: Minimum inhibitory concentration, P. aeruginosa ATCC 27853
# [11] = tested on: A. baumannii CDC-0083; test: microbe, parasite or virus in culture; assay type: cell-based; settings: Acinetobacter baumannii, CDC0083, read-out: MIC, A. baumannii CDC-0083
# [12] = tested on: P. aeruginosa CDC-0110; test: microbe, parasite or virus in culture; assay type: cell-based; settings: Pseudomonas aeruginosa, CDC0110, read-out: Minimum inhibitory concentration, P. aeruginosa CDC-0110
# [13] = target: T1, PBP3 from Pseudomonas aeruginosa (PAO1) (Pseudomonas aeruginosa, UniProt G3XD46); test: Bocillin-FL fluorescence polarization competition binding, P. aeruginosa PBP3; settings: Binding affinity to P. aeruginosa PBP3; fluorescence polarization competition binding assay using Bocillin-FL; read-out: P. aeruginosa PBP3 Potency
# T1 construct: made in house
# Procedure, shortened: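 Purified PBPs pre-incubated with inhibitor (E. coli PBP3 1.5 μM, 30 min; P. aeruginosa PBP3 0.75 μM, A. baumannii PBP1a 1 μM and PBP3 0.2 μM, 15 min), then Bocillin-FL 0.1 μM (0.05 μM for PBP1a) added; FP read up to 60 min. EC50 = concentration halving bound Bocillin-FL.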
# T1 sequence (G3XD46 whole entry): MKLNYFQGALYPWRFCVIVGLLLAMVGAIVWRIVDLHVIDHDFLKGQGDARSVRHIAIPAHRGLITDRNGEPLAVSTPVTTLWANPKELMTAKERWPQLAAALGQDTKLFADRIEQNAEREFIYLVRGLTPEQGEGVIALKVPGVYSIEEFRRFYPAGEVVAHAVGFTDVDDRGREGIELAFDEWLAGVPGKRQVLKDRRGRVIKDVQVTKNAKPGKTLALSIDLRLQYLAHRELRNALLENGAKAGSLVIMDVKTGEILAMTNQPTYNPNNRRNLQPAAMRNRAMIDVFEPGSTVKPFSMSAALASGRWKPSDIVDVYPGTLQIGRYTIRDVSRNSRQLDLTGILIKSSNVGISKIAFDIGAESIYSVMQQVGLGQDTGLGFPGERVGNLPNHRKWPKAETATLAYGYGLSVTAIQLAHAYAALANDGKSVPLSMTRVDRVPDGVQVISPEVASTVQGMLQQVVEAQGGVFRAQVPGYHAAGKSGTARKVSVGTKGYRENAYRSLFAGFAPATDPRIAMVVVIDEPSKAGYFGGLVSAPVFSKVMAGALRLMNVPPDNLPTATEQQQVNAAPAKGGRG
Compound,MIC [1] [µg/mL],MIC [2] [µg/mL],MIC [3] [µg/mL],MIC [4] [µg/mL],MIC [5] [µg/mL],MIC [6] [µg/mL],MIC [7] [µg/mL],MIC [8] [µg/mL],MIC [9] [µg/mL],MIC [10] [µg/mL],MIC [11] [µg/mL],MIC [12] [µg/mL],IC50 [13] [µM]
"O=C(NCCS(=O)(=O)N1CCN(C(=O)N[C@@H](C(=O)N[C@H]2Cc3ccc(F)c(C(=O)O)c3OB2O)c2cc(F)c(O)c(O)c2Cl)C1=O)c1nccs1 [Example 264, (R)-3-((R)-2-(2-chloro-5-fluoro-3,4-dihydroxyphenyl)-2-(2-oxo-3-((2-(thiazole-2-carboxamido)ethyl)sulfonyl)imidazolidine-1-carboxamido)acetamido)-7-fluoro-2-hydroxy-3,4-dihydro-2H-benzo[e][1,2]oxaborinine-8-carboxylic acid]",16 to 32,1 to 2,4 to 8,16 to 32,> 64,2 to 4,< 1,< 1,< 1,< 1,< 1,< 1,< 10
"O=C(O)c1c(F)ccc2c1OB(O)[C@@H](NC(=O)C(NC(=O)N1CCN(S(=O)(=O)CCNC(=O)[C@@H]3CCCN3)C1=O)c1cc(F)c(O)c(O)c1Cl)C2 (stereo partly drawn) [Example 265, (3R)-3-(2-(2-chloro-5-fluoro-3,4-dihydroxyphenyl)-2-(2-oxo-3-((2-((S)-pyrrolidine-2-carboxamido)ethyl)sulfonyl)imidazolidine-1-carboxamido)acetamido)-7-fluoro-2-hydroxy-3,4-dihydro-2H-benzo[e][1,2]oxaborinine-8-carboxylic acid]",16 to 32,4 to 8,4 to 8,16 to 32,> 64,< 1,2 to 4,2 to 4,2 to 4,2 to 4,< 1,< 1,< 10
"O=C(NCCS(=O)(=O)N1CCN(C(=O)NC(C(=O)N[C@H]2Cc3ccc(F)c(C(=O)O)c3OB2O)c2cc(F)c(O)c(O)c2Cl)C1=O)Nc1cccc(O)c1 (stereo partly drawn) [Example 266, (3R)-3-(2-(2-chloro-5-fluoro-3,4-dihydroxyphenyl)-2-(3-((2-(3-(3-hydroxyphenyl)ureido)ethyl)sulfonyl)-2-oxoimidazolidine-1-carboxamido)acetamido)-7-fluoro-2-hydroxy-3,4-dihydro-2H-benzo[e][1,2]oxaborinine-8-carboxylic acid]",16 to 32,1 to 2,4 to 8,16 to 32,> 64,8 to 16,2 to 4,2 to 4,2 to 4,2 to 4,< 1,2 to 4,< 10
"O=C(NCCS(=O)(=O)N1CCN(C(=O)N[C@@H](C(=O)N[C@H]2Cc3ccc(F)c(C(=O)O)c3OB2O)c2cc(F)c(O)c(O)c2Cl)C1=O)Nc1cccnc1 [Example 267, (R)-3-((R)-2-(2-chloro-5-fluoro-3,4-dihydroxyphenyl)-2-(2-oxo-3-((2-(3-(pyridin-3-yl)ureido)ethyl)sulfonyl)imidazolidine-1-carboxamido)acetamido)-7-fluoro-2-hydroxy-3,4-dihydro-2H-benzo[e][1,2]oxaborinine-8-carboxylic acid]",16 to 32,1 to 2,4 to 8,16 to 32,> 64,2 to 4,2 to 4,2 to 4,2 to 4,2 to 4,< 1,2 to 4,< 10
"O=C(NCCCS(=O)(=O)N1CCN(C(=O)NC(C(=O)N[C@H]2Cc3ccc(F)c(C(=O)O)c3OB2O)c2cc(F)c(O)c(O)c2Cl)C1=O)c1ccccc1 (stereo partly drawn) [Example 268, (3R)-3-(2-(3-((3-benzamidopropyl)sulfonyl)-2-oxoimidazolidine-1-carboxamido)-2-(2-chloro-5-fluoro-3,4-dihydroxyphenyl)acetamido)-7-fluoro-2-hydroxy-3,4-dihydro-2H-benzo[e][1,2]oxaborinine-8-carboxylic acid]",16 to 32,4 to 8,16 to 32,16 to 32,> 64,> 128,2 to 4,8 to 16,2 to 4,8 to 16,2 to 4,8 to 16,< 10
"O=C(NCCCS(=O)(=O)N1CCN(C(=O)NC(C(=O)N[C@H]2Cc3ccc(F)c(C(=O)O)c3OB2O)c2cc(F)c(O)c(O)c2Cl)C1=O)c1ccc(O)cc1 (stereo partly drawn) [Example 269, (3R)-3-(2-(2-chloro-5-fluoro-3,4-dihydroxyphenyl)-2-(3-((3-(4-hydroxybenzamido)propyl)sulfonyl)-2-oxoimidazolidine-1-carboxamido)acetamido)-7-fluoro-2-hydroxy-3,4-dihydro-2H-benzo[e][1,2]oxaborinine-8-carboxylic acid]",16 to 32,4 to 8,4 to 8,16 to 32,> 64,> 128,2 to 4,2 to 4,8 to 16,2 to 4,32 to 64,8 to 16,< 10
"O=C(NCCCS(=O)(=O)N1CCN(C(=O)N[C@H](C(=O)N[C@H]2Cc3ccc(F)c(C(=O)O)c3OB2O)c2cc(F)c(O)c(O)c2Cl)C1=O)c1cccc(O)c1 [Example 270, (R)-3-((S)-2-(2-chloro-5-fluoro-3,4-dihydroxyphenyl)-2-(3-((3-(3-hydroxybenzamido)propyl)sulfonyl)-2-oxoimidazolidine-1-carboxamido)acetamido)-7-fluoro-2-hydroxy-3,4-dihydro-2H-benzo[e][1,2]oxaborinine-8-carboxylic acid]",> 64,16 to 32,> 64,> 64,> 64,> 128,32 to 64,> 128,32 to 64,32 to 64,2 to 4,> 128,< 10
"O=C(NCCCS(=O)(=O)N1CCN(C(=O)N[C@@H](C(=O)N[C@H]2Cc3ccc(F)c(C(=O)O)c3OB2O)c2cc(F)c(O)c(O)c2Cl)C1=O)c1cccc(O)c1 [Example 271, (R)-3-((R)-2-(2-chloro-5-fluoro-3,4-dihydroxyphenyl)-2-(3-((3-(3-hydroxybenzamido)propyl)sulfonyl)-2-oxoimidazolidine-1-carboxamido)acetamido)-7-fluoro-2-hydroxy-3,4-dihydro-2H-benzo[e][1,2]oxaborinine-8-carboxylic acid]",16 to 32,1 to 2,4 to 8,16 to 32,> 64,2 to 4,2 to 4,2 to 4,2 to 4,2 to 4,< 1,8 to 16,< 10
"O=C(NCCCS(=O)(=O)N1CCN(C(=O)NC(C(=O)N[C@H]2Cc3ccc(F)c(C(=O)O)c3OB2O)c2cc(F)c(O)c(O)c2Cl)C1=O)c1ccncc1 (stereo partly drawn) [Example 272, (3R)-3-(2-(2-chloro-5-fluoro-3,4-dihydroxyphenyl)-2-(3-((3-(isonicotinamido)propyl)sulfonyl)-2-oxoimidazolidine-1-carboxamido)acetamido)-7-fluoro-2-hydroxy-3,4-dihydro-2H-benzo[e][1,2]oxaborinine-8-carboxylic acid]",16 to 32,4 to 8,16 to 32,16 to 32,> 64,2 to 4,2 to 4,8 to 16,2 to 4,2 to 4,< 1,2 to 4,< 10
